Experiment: xn = mol fraction of the nth substance listed
Conditions: 101 kPa, Liquid

CCCCCCCCCCCO [1-undecanol] + CCCCCCCCCO
Conditions | mass density, 293.15 K [kg/m3] | mass density, 298.15 K [kg/m3] | viscosity, 293.15 K [mPa·s] | viscosity, 298.15 K [mPa·s]
x2 = 0 | 832.5 | 829 | 17.18 | 14.02
x2 = 0.1177 | 831.4 | 827.9 | 16.86 | 13.84
x2 = 0.248 | 830.8 | 827.4 | 16.21 | 13.3
x2 = 0.3116 | 830.5 | 827.1 | 15.57 | 12.72
x2 = 0.4007 | 830.2 | 826.8 | 15.49 | 12.68
x2 = 0.5017 | 829.8 | 826.4 | 14.66 | 12.03
x2 = 0.6004 | 829.4 | 826 | 13.83 | 11.33
x2 = 0.6921 | 829 | 825.6 | 13.5 | 11.12
x2 = 0.7943 | 828.6 | 825.2 | 12.79 | 10.55
x2 = 0.8915 | 828.1 | 824.7 | 12.06 | 9.982

CCCCCCCCCCCO [1-undecanol] + CCCCCCCO
Conditions | mass density, 293.15 K [kg/m3] | mass density, 298.15 K [kg/m3] | viscosity, 293.15 K [mPa·s] | viscosity, 298.15 K [mPa·s]
x2 = 0 | 832.5 | 829 | 17.18 | 14.02
x2 = 0.1245 | 830.7 | 827.3 | 16.37 | 13.36
x2 = 0.2254 | 830 | 826.6 | 14.96 | 12.26
x2 = 0.2988 | 829.4 | 826 | 13.79 | 11.3
x2 = 0.4142 | 828.4 | 825 | 12.93 | 10.66
x2 = 0.5086 | 827.6 | 824.2 | 11.83 | 9.79
x2 = 0.5895 | 826.8 | 823.4 | 10.82 | 8.971
x2 = 0.6993 | 825.7 | 822.3 | 9.924 | 8.253
x2 = 0.7866 | 824.8 | 821.3 | 8.997 | 7.511
x2 = 0.8888 | 823.6 | 820.2 | 8.005 | 6.711

CCCCCCCCCCCO [1-undecanol] + CCCCCO
Conditions | mass density, 293.15 K [kg/m3] | mass density, 298.15 K [kg/m3] | viscosity, 293.15 K [mPa·s] | viscosity, 298.15 K [mPa·s]
x2 = 0 | 832.5 | 829 | 17.18 | 14.02
x2 = 0.1218 | 830.3 | 826.9 | 15.92 | 13.04
x2 = 0.2312 | 829.1 | 825.7 | 13.84 | 11.4
x2 = 0.3167 | 828 | 824.6 | 12.28 | 10.14
x2 = 0.4002 | 826.9 | 823.5 | 11.17 | 9.277
x2 = 0.5076 | 825.2 | 821.8 | 9.516 | 7.956
x2 = 0.6003 | 823.7 | 820.3 | 8.205 | 6.902
x2 = 0.6977 | 822 | 818.5 | 6.943 | 5.846
x2 = 0.7982 | 819.8 | 816.3 | 5.804 | 4.908
x2 = 0.8954 | 817.5 | 813.9 | 4.87 | 4.16

Source: the NIST ThermoML archive (doi:10.1021/je800497u)
